Measured values: patent US11426362B2, “Oral cannabinoid formulations” (GW Research Limited, priority 2017, dated 2022)

Key:
[1] = cited from earlier work
[2] = oral and parenteral administration in animals; cited from earlier work
[3] = Antioxidant screening in the formulation; format: physicochemical; settings: alpha-tocopherol at 0.5% concentration in surfactant phase; ascorbic acid in aqueous phase
From the text: Alpha tocopherol and ascorbic acid were screened for their effectiveness for use within the formulation. Ascorbic acid was used in the aqueous phase whereas the alpha tocopherol was used in the surfactant phase in terms of order of addition.

Row | Structure (SMILES) | acute toxicity [2] | appearance of solutions containing the antioxidant [3] | further results
1 | CCCOC(=O)c1ccc(O)cc1 [propyl paraben, propyl parahydroxybenzoate] | relatively non-toxic |  | permitted daily exposure (PDE) ([1]; adults and pediatric patients): 2 mg/kg/day
2 | OC[C@H]1O[C@H](O[C@]2(CCl)O[C@H](CCl)[C@@H](O)[C@@H]2O)[C@H](O)[C@@H](O)[C@H]1Cl [Sucralose] |  |  | ADI limit ([1]; pediatric population): 5 mg/kg/day
3 | O=C1O[C@H]([C@@H](O)CO)C(O)=C1O [ascorbic acid] |  | clear colourless solutions | 
4 | Cc1c(C)c2c(c(C)c1O)CC[C@@](C)(CCC[C@H](C)CCC[C@H](C)CCCC(C)C)O2 [alpha-tocopherol] |  | hazy | 
5 | COC(=O)c1ccc(O)cc1 [methylparaben, methyl parahydroxybenzoate] | practically non-toxic |  | 
